Laboratory results: patent publication US20250332157A1, “SOLID COMPOSITION OF GLP-1 RECEPTOR AGONIST” (Hangzhou Zhongmeihuadong Pharmaceutical Co., Ltd., priority 2021, published 2025)
Where “and” joins values, the source holds several entries; their conditions need not be identical. Equal entries are not always repeated. Structures can show the parent of a compound that is named as a salt. Each block holds one compound with its values, some of them ahead of it.

Key:
[1] = Forced degradation experiment of active ingredient (acid, alkali, oxidation, high temperature, light, high humidity), HPLC; type: physicochemical; set-up: Impurity B / Impurity E / Impurity F / Impurity G / Impurity I / Largest unknown impurity: unit not given here
Protocol: Preparation of solutions: • (1) destructive test article solution: 25 mg of OAD2 or a pharmaceutically acceptable salt thereof was placed into a 50 ml measuring flask. Diluent was added to dissolve it and the mixture was diluted to the scale mark, shaken well and used as a test article solution. • (2) test article solution destructed by acid: 25.35 mg of OAD2 or a pharmaceutically acceptable salt thereof was placed into a 50 ml measuring flask. 2 ml of 1 mol/L hydrochloric acid was added, and the mixture was mixed, stood at room temperature for 24 h, adjusted pH to neutral with 1 mol/L sodium hydroxide solution. Diluent was added to dilute the mixture to the scale mark. The mixture was shaken well, and used as the test article solution destructed by acid. • (3) test article solution destructed by alkali: 26.64 mg of OAD2 or a pharmaceutically acceptable salt thereof was placed into a 50 ml measuring flask. 2 ml of 1 mol/L sodium hydroxide solution was added, and the mixture was mixed, stood at room temperature for 24h, adjusted pH to neutral with 1 mol/L hydrochloric acid solution. Diluent was added to dilute the mixture to scale mark. The mixture was shaken well, and used as test article solution destructed by alkali. • (4) acid-base blank: 2 ml of 1 mol/L sodium hydroxide solution was placed into a 50 ml measuring flask. The solution was neutralized with 1 mol/L hydrochloric acid solution, then diluted to the scale mark with a diluent, and shaken well to serve as the acid-base destruction blank solution. • (5) test article solution destructed by oxidation: 28.10 mg of OAD2 or a pharmaceutically acceptable salt thereof was placed into a 50 ml measuring flask. 2 ml of 15% hydrogen peroxide was added, stood at room temperature for 9 h. The mixture was diluted to the scale mark with a diluent. […] It was dissolved and diluted to the scale mark with a diluent, shaken well, and used as the test article solution destructed by high temperature. • (8) test article solution destructed by light exposure: 25.12 mg of OAD2 or pharmaceutically acceptable salt thereof was accurately weighted, placed into a 50 ml measuring flask, stood under irradiation of light 4500 Lx+−500 Lx for 6 days. It was dissolved and diluted to the scale mark with a diluent, shaken well, and used as the test article solution destructed by light exposure. • (9) test article solution destructed by high-humidity destruction: 25.71 mg of OAD2 or a pharmaceutically acceptable salt thereof was placed into a 50 ml measuring flask, then the measuring flask was placed into a drier with KNO3 saturated solution at the bottom (humidity was 92.5%), stood for 5 days. It was dissolved and diluted to the scale mark with a diluent, shaken well, and used as the test article solution destructed by high-humidity destruction. • (10) blank solution that is not destructed, not destructed by high-temperature, not destructed by high-humidity and not destructed by light exposure: a diluent.
The measuring method: 2 μl of each of the above solutions (1)-(10) was injected into a liquid chromatograph, and the chromatograms were recorded. Among them, the results of the forced degradation experiment are shown in Table 13.1, and the results of the changes of various impurity components after the forced degradation are shown in Table 13.2. […]

[2] = Forced degradation studies No. 2 of OAD2 2HCl in solution (water, HCl, NaOH, H2O2, UV light), HPLC; type: physicochemical
Protocol: A stock solution was prepared by dissolving 12.90 mg of OAD2 2 HCl in acetonitrile:water (70:30) to a final volume of 25 mL ([…]). For test groups 1 and 2, the test solution was prepared by mixing 2 mL of the stock solution and 2 mL of water. For test groups 3 and 4, the test solution was prepared by mixing 2 mL of the stock solution and 2 mL of 0.1 N HCl solution. For test groups 5 and 6, the test solution was prepared by mixing 2 mL of the stock solution and 2 mL of 0.1 N NaOH solution. Test groups 1, 3, and 5 (at room temperature) were shielded from light by wrapping with aluminum foil.
A stock solution was prepared by dissolving 5.37 mg of OAD2 2HCl in acetonitrile:water (40:60) to a final volume of 10 mL ([…]). For test group 7, the test solution was prepared by mixing 2 mL of the stock solution and 2 mL of 3% aqueous H2O2. For test group 8, the test solution was prepared by dissolving 5.58 mg to 5.64 mg of OAD2 2HCl in acetonitrile:water (40:60) to a final volume of 25 mL.
The samples in each test group were stored either at room temperature or at 60° C. and observed after the periods indicated in the Table below.
A validated, reverse phase liquid chromatography gradient method was applied to determine assay (content of the active ingredient). The column used was Supelco Ascentis Express RP-Amide, 150×3.0 mm, 2.7μ or equivalent column. Mobile phase A comprises 0.05% TFA in water (v/v). Mobile phase B comprises 0.05% TFA in acetonitrile:methanol (1:2) (v/v). The sample was run using a step gradient from time zero (50% mobile phase A) to 38 minutes (99% mobile phase B). The diluent used to dissolve the standard and sample was a 60:40 mixture of acetonitrile and water. Chromatographic peaks were detected using UV detector at 280 nm. Assay value was obtained by comparing peak responses, expressed as the peak area of a sample formulation of known concentration and the peak area obtained from a standard formulation of known concentration.
The impurities were quantitated using the assay procedure described above. […]

[3] = test group 7: 1.5% solution of H2O2, RT, after 90 minutes

Impurities C + D ([1]; Acid destruction): 0.03% | Impurity A ([1]; Acid destruction): 0.13 | Impurity B ([1]; Acid destruction): Undetected | Impurity E ([1]; Acid destruction): Undetected | Impurity F ([1]; Acid destruction): 0.34 | Impurity G ([1]; Acid destruction): 0.05 | Impurity H ([1]; Acid destruction): Undetected | Impurity I ([1]; Acid destruction): Undetected | Largest unknown impurity ([1]; Acid destruction): 0.07 | Number of impurities (≥0.05%) ([1]; Acid destruction): 4 | Purity of main peak ([1]; Acid destruction): 99.4% | Total Impurities ([1]; Acid destruction): 0.65% | Impurities C + D ([1]; Alkali destruction): 0.05% | Impurity A ([1]; Alkali destruction): 0.13 | Impurity B ([1]; Alkali destruction): 0.02 | Impurity E ([1]; Alkali destruction): Undetected | Impurity F ([1]; Alkali destruction): 0.36 | Impurity G ([1]; Alkali destruction): 0.07 | Impurity H ([1]; Alkali destruction): Undetected | Impurity I ([1]; Alkali destruction): Undetected | Largest unknown impurity ([1]; Alkali destruction): 0.07 | Number of impurities (≥0.05%) ([1]; Alkali destruction): 4 | Purity of main peak ([1]; Alkali destruction): 99.3% | Total Impurities ([1]; Alkali destruction): 0.73% | Impurities C + D ([1]; High humidity destruction): 0.04% | Impurity A ([1]; High humidity destruction): 0.12 | Impurity B ([1]; High humidity destruction): Undetected | Impurity E ([1]; High humidity destruction): 0.01 | Impurity F ([1]; High humidity destruction): 0.31 | Impurity G ([1]; High humidity destruction): 0.04 | Impurity H ([1]; High humidity destruction): Undetected | Impurity I ([1]; High humidity destruction): Undetected | Largest unknown impurity ([1]; High humidity destruction): 0.08 | Number of impurities (≥0.05%) ([1]; High humidity destruction): 3 | Purity of main peak ([1]; High humidity destruction): 99.3% | Total Impurities ([1]; High humidity destruction): 0.68% | Impurities C + D ([1]; High temperature destruction): 0.08% | Impurity A ([1]; High temperature destruction): 1.76 | Impurity B ([1]; High temperature destruction): 0.97 | Impurity E ([1]; High temperature destruction): 0.08 | Impurity F ([1]; High temperature destruction): 0.26 | Impurity G ([1]; High temperature destruction): 0.09 | Impurity H ([1]; High temperature destruction): 0.02 | Impurity I ([1]; High temperature destruction): Undetected | Largest unknown impurity ([1]; High temperature destruction): 2.36 | Number of impurities (≥0.05%) ([1]; High temperature destruction): 25 | Purity of main peak ([1]; High temperature destruction): 92.2% | Total Impurities ([1]; High temperature destruction): 7.8% | Impurities C + D ([1]; Light exposure destruction): 0.01% | Impurity A ([1]; Light exposure destruction): 1.13 | Impurity B ([1]; Light exposure destruction): 0.26 | Impurity E ([1]; Light exposure destruction): 0.12 | Impurity F ([1]; Light exposure destruction): 0.22 | Impurity G ([1]; Light exposure destruction): 0.03 | Impurity H ([1]; Light exposure destruction): 0.38 | Impurity I ([1]; Light exposure destruction): Undetected | Largest unknown impurity ([1]; Light exposure destruction): 0.78 | Number of impurities (≥0.05%) ([1]; Light exposure destruction): 24 | Purity of main peak ([1]; Light exposure destruction): 93.1% | Total Impurities ([1]; Light exposure destruction): 6.9% | Impurities C + D ([1]; No destruction): 0.05% | Impurity A ([1]; No destruction): 0.12 | Impurity B ([1]; No destruction): Undetected | Impurity E ([1]; No destruction): Undetected | Impurity F ([1]; No destruction): 0.31 | Impurity G ([1]; No destruction): 0.03 | Impurity H ([1]; No destruction): Undetected | Impurity I ([1]; No destruction): Undetected | Largest unknown impurity ([1]; No destruction): 0.07 | Number of impurities (≥0.05%) ([1]; No destruction): 3 | Purity of main peak ([1]; No destruction): 99.4% | Total Impurities ([1]; No destruction): 0.6% | Impurities C + D ([1]; Oxidative destruction): 0.18% | Impurity A ([1]; Oxidative destruction): 0.36 | Impurity B ([1]; Oxidative destruction): 2.77 | Impurity E ([1]; Oxidative destruction): Undetected | Impurity F ([1]; Oxidative destruction): 0.26 | Impurity G ([1]; Oxidative destruction): 0.20 | Impurity H ([1]; Oxidative destruction): Undetected | Impurity I ([1]; Oxidative destruction): 0.02 | Largest unknown impurity ([1]; Oxidative destruction): 2.56 | Number of impurities (≥0.05%) ([1]; Oxidative destruction): 18 | Purity of main peak ([1]; Oxidative destruction): 91.6% and 91.8% | Total Impurities ([1]; Oxidative destruction): 8.2%
SMILES: CC[C@@H](c1ccccc1)N1Cc2cc3c(cc2C[C@H]1C(=O)N[C@@H](Cc1ccc(-c2ccnc(C)c2C)cc1)C(=O)O)OC[C@H](c1ccc(OCc2ccc(Cl)c(Cl)c2)cc1)O3 [OAD2, (S)-2-(3S,8S)-3-(4-(3,4-dichlorobenzyloxy)phenyl-7-((S)-1-phenylpropyl)-2,3,6,7,8,9-hexahydro-[1,4]-dioxino[2,3-g]isoquinolin-8-ylformylamino)-3-(4-(2,3-dimethylpyridin-4-yl)phenyl)propionic acid]

growth of impurities by HPLC [2, 3]: significant increase in impurities | loss of active ingredient [2, 3]: 10%
SMILES: CC[C@@H](c1ccccc1)N1Cc2cc3c(cc2C[C@H]1C(=O)N[C@@H](Cc1ccc(-c2ccnc(C)c2C)cc1)C(=O)O)OC[C@H](c1ccc(OCc2ccc(Cl)c(Cl)c2)cc1)O3 [OAD2 dihydrochloride, (S)-2-(3S,8S)-3-(4-(3,4-dichlorobenzyloxy)phenyl-7-((S)-1-phenylpropyl)-2,3,6,7,8,9-hexahydro-[1,4]-dioxino[2,3-g]isoquinolin-8-formylamino)-3-(4-(2,3-dimethylpyridin-4-yl)phenyl)propanoic acid dihydrochloride]
growth of impurities or loss of active ingredient by HPLC ([2]; test groups 1-6 and 8: water, 0.05N HCl, 0.05N NaOH at RT or 60° C., 1 and 2 days, UV light (365 nm) RT 24 hours): no substantial growth in any impurities or loss of active ingredient
